A value given as a limit tells only on which side of the number the result lay.

This assay deals with T1, human FXR (NR1H4) (Homo sapiens, UniProt Q96RI1).
T1 construct: host or cells: CHO (Chinese hamster ovary) reporter cells
T1 sequence (Q96RI1 1-486): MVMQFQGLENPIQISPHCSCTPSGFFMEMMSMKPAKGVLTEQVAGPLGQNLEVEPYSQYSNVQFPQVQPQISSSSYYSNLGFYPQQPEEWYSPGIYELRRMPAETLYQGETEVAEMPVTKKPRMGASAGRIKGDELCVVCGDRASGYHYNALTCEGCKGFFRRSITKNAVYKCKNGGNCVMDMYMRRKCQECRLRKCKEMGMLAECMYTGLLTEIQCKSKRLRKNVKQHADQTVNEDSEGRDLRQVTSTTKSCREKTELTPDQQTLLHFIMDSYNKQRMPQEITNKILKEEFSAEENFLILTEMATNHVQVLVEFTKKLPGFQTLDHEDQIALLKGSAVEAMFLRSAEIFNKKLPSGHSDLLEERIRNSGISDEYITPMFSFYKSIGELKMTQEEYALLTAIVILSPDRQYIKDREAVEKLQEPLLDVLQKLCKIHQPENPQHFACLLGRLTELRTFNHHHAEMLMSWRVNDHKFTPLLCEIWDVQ
The assay is described as follows: Human FXR (NR1H4) Assay (Gal4 promoter driven luciferase reporter, Indigo Bioscience kit IB00601). As to Efficacy (%): normalized to CDCA set as 100%. Particulars: for EC50: CHO reporter cells expressing human NR1H4, luciferase, 22 hours incubation, potency ranges; for Emax: read-out: Efficacy (%). Format: cell-based. The source says:
Human FXR (NR1H4) Assay Determination of a ligand mediated Gal4 promoter driven transactivation to quantify ligand binding mediated activation of FXR. FXR Reporter Assay kit purchased from Indigo Bioscience (Catalogue number: IB00601) to determine the potency and efficacy of compound developed by Enanta that can induce FXR activation. The principle application of this reporter assay system is to quantify functional activity of human FXR. The assay utilizes non-human mammalian cells, CHO (Chinese hamster ovary) cells engineered to express human NR1H4 protein (referred to as FXR). Reporter cells also incorporate the cDNA encoding beetle luciferase which catalyzes the substrates and yields photon emission. Luminescence intensity of the reaction is quantified using a plate-reading luminometer, Envision. Reporter Cells include the luciferase reporter gene functionally linked to an FXR responsive promoter. Thus, quantifying changes in luciferase expression in the treated reporter cells provides a sensitive surrogate measure of the changes in FXR activity. […] The assay is according to the manufacturer's instructions. […] Retrieve Reporter Cells from −80° C. storage. Perform a rapid thaw of the frozen cells by transferring a 10 ml volume of 37° C. cell recovery medium into the tube of frozen cells. Recap the tube of Reporter Cells and immediately place it in a 37° C. water bath for 5-10 minutes. Retrieve the tube of Reporter Cell Suspension from the water bath. Sanitize the outside surface of the tube with a 70% alcohol swab, and then transfer it into the cell culture hood. Dispense 90 μl of cell suspension into each well of the 96-well Assay Plate. Transfer the plate into 37° C. incubator, allowing the cells adherent to the bottom of the well. Dilute compounds in Dilution Plate (DP), and administrate to cells at Assay Plate (AP). DMSO content of the samples was kept at 0.2%. Cells were incubated for additional 22 hours before luciferase activities were measured. Thirty minutes before intending to quantify FXR activity, remove Detection Substrate and Detection Buffer from the refrigerator and place them in a low-light area so that they may equilibrate to room temperature. Remove the plate's lid and discard all media contents by ejecting it into an appropriate waste container. Gently tap the inverted plate onto a clean absorbent paper towel to remove residual droplets. Cells will remain tightly adhered to well bottoms. Add 100 μl of luciferase detection reagent to each well of the assay plate. Allow the assay plate to rest at room temperature for at least 5 minutes following the addition of LDR. Set the instrument (Envision) to perform a single 5 second “plate shake” prior to reading the first assay well. Read time may be 0.5 second (500 mSec) per well.
(In general: Reporter assays use an easily measured gene product as a stand-in for the process of interest.)

Usually EC50 stands for the midpoint of the concentration-response curve. A higher EC50 goes with a need for much substance. With `CC(C)Oc1cc(C(=O)NS(=O)(=O)C2CC2)cc2sc(O[C@@H]3CO[C@H]4[C@@H]3OC[C@@H]4OCc3c(-c4c(Cl)cccc4Cl)noc3C3CC3)nc12` [Example 3, 2-(((3R,3aR,6S,6aR)-6-((5-cyclopropyl-3-(2,6-dichlorophenyl)isoxazol-4-yl)methoxy)hexahydrofuro[3,2-b]furan-3-yl)oxy)-N-(cyclopropylsulfonyl)-4-isopropoxybenzo[d]thiazole-6-carboxamide], the EC50 lay within 200 to 1000 nM and the Emax was found to be 33.5%.
Consider `O=C(O)c1ccc2nc(O[C@@H]3CO[C@H]4[C@@H]3OC[C@H]4OCc3c(-c4c(Cl)cccc4Cl)noc3C3CC3)ccc2c1` [Example 16], for which the EC50 was in the range of 30 to 200 nM and the Emax came to 85%.
The matching figures for `CC(C)Oc1cc(C(=O)O)cc2sc([C@@]3(O)CO[C@@H]4[C@H](OCc5c(-c6c(Cl)cccc6Cl)noc5C5CC5)CO[C@@H]43)nc12` [Example 17]: over 1000 nM and 9%.
For `CC(C)Oc1cc(C(=O)O)cc2sc(N3CCN4C(=O)[C@H](OCc5c(-c6c(Cl)cccc6Cl)noc5C5CC5)C[C@H]4C3)nc12` [Example 30], in that order: 30 to 200 nM and 70%.
For `O=C(O)c1cc(F)c2nc(O[C@@H]3CO[C@H]4[C@@H]3OC[C@H]4OCc3c(-c4ccccc4OC(F)(F)F)noc3C3CC3)sc2c1` [Example 6], in that order: 30 to 200 nM and 56%.
Take `CC(C)Oc1cc(C(=O)O)cc2sc(N3C[C@H]4C[C@@H](NCc5c(-c6c(Cl)cccc6Cl)noc5C5CC5)C[C@H]4C3)nc12` [Example 28]: the EC50 is 200 to 1000 nM and the Emax turned out to be 57%.
The matching figures for `O=C(O)c1cc(F)c2nc(O[C@@H]3CO[C@H]4[C@@H]3OC[C@H]4OCc3c(-c4c(Cl)cccc4Cl)noc3C3CC3)sc2c1` [Example 5, 2-(((3R,3aR,6R,6aR)-6-((5-cyclopropyl-3-(2,6-dichlorophenyl)isoxazol-4-yl)methoxy)hexahydrofuro[3,2-b]furan-3-yl)oxy)-4-fluorobenzo[d]thiazole-6-carboxylic acid]: 30 to 200 nM and 55%.
For `CC(C)Oc1cc(C(=O)NS(=O)(=O)C2(C)CC2)cc2sc(O[C@@H]3CO[C@H]4[C@@H]3OC[C@H]4OCc3c(-c4c(Cl)cccc4Cl)noc3C3CC3)nc12` [Example 12], in that order: 30 to 200 nM and 70%.
Take `CC(C)Oc1cc(C(=O)O)cc2sc(O[C@@H]3CO[C@H]4[C@@H]3OC[C@H]4OCc3c(-c4ccccc4OC(F)(F)F)noc3C3CC3)nc12` [Example 23]: the EC50 is under 30 nM and the Emax worked out at 103%.
Take `CC(C)Oc1cc(C(=O)O)cc2sc(N3CCN4C[C@H](OCc5c(-c6c(Cl)cccc6Cl)noc5C5CC5)C[C@H]4C3)nc12` [Example 21]: the EC50 was 30 to 200 nM and the Emax turned out to be 72%.
For `CC(C)Oc1cc(C(=O)NS(=O)(=O)C2(C)CC2)cc2sc(O[C@@H]3CO[C@H]4[C@@H]3OC[C@H]4OCc3c(-c4ccccc4OC(F)(F)F)noc3C3CC3)nc12` [Example 24], the EC50 was 30 to 200 nM and the Emax is 78%.
Regarding `O=C(O)c1ccc2nc(O[C@@H]3CO[C@H]4[C@@H]3OC[C@@H]4OCc3c(-c4c(Cl)cccc4Cl)noc3C3CC3)sc2c1` [Example 4, 2-(((3R,3aR,6S,6aR)-6-((5-cyclopropyl-3-(2,6-dichlorophenyl)isoxazol-4-yl)methoxy)hexahydrofuro[3,2-b]furan-3-yl)oxy)benzo[d]thiazole-6-carboxylic acid], the EC50 fell in the range of 200 to 1000 nM and the Emax is 40%.
For `CC(C)Oc1cc(C(=O)NS(=O)(=O)C2CC2)cc2sc(O[C@@H]3CO[C@H]4[C@@H]3OC[C@H]4OCc3c(-c4ccccc4OC(F)(F)F)noc3C3CC3)nc12` [Example 25], in that order: 30 to 200 nM and 66%.
The matching figures for `O=C(NS(=O)(=O)C1CC1)c1ccc2nc(O[C@@H]3CO[C@H]4[C@@H]3OC[C@H]4OCc3c(-c4c(Cl)cccc4Cl)noc3C3CC3)sc2c1` [Example 9]: 200 to 1000 nM and 5.5%.
Consider `CC(C)Oc1cc(C(=O)O)cc2sc(N[C@@H]3CO[C@H]4[C@@H]3OC[C@H]4OCc3c(-c4c(Cl)cccc4Cl)noc3C3CC3)nc12` [Example 19], for which the EC50 was in the range of 200 to 1000 nM and the Emax is 82.3%.
For `CC(C)Oc1cc(C(=O)NS(=O)(=O)C2CC2)cc2sc(O[C@@H]3CO[C@H]4[C@@H]3OC[C@H]4OCc3c(-c4c(Cl)cccc4Cl)noc3C3CC3)nc12` [Example 11], the EC50 was in the range of 30 to 200 nM and the Emax was found to be 57%.
As to `CC1(S(=O)(=O)NC(=O)c2ccc3nc(O[C@@H]4CO[C@H]5[C@@H]4OC[C@H]5OCc4c(-c5c(Cl)cccc5Cl)noc4C4CC4)sc3c2)CC1` [Example 8, 2-(((3R,3aR,6R,6aR)-6-((5-cyclopropyl-3-(2,6-dichlorophenyl)isoxazol-4-yl)methoxy)hexa hydrofuro[3,2-b]furan-3-yl)oxy)-N-((1-methylcyclopropyl)sulfonyl)benzo-[d]thiazole-6-carboxamide], the EC50 was 200 to 1000 nM and the Emax stood at 20%.
For the molecule `CC(C)Oc1cc(C(=O)O)cc2sc(N3CCN4C[C@H](OCc5c(-c6c(Cl)cccc6Cl)noc5C5CC5)C[C@@H]4C3)nc12` [Example 22, 2-((7R,8aR)-7-((5-cyclopropyl-3-(2,6-dichlorophenyl)isoxazol-4-yl)methoxy)hexahydropyrrolo[1,2-a]pyrazin-2(1H)-yl)-4-isopropoxybenzo[d]thiazole-6-carboxylic acid], the EC50 was in the range of 30 to 200 nM and the Emax worked out at 82%.
The matching figures for `CC(C)Oc1cc(C(=O)O)cc2sc(N3C[C@H]4[C@@H](OCc5c(-c6c(Cl)cccc6Cl)noc5C5CC5)CO[C@H]4C3)nc12` [Example 26]: 200 to 1000 nM and 7%.
In the case of `CC(C)Oc1cc(C(=O)O)cc2sc(N3CCN4C[C@@H](OCc5c(-c6c(Cl)cccc6Cl)noc5C5CC5)C[C@@H]4C3)nc12` [Example 20, 2-((7S,8aR)-7-((5-cyclopropyl-3-(2,6-dichlorophenyl)isoxazol-4-yl)methoxy)hexahydropyrrolo[1,2-a]pyrazin-2(1H)-yl)-4-isopropoxybenzo[d]thiazole-6-carboxylic acid], the EC50 lay within 200 to 1000 nM and the Emax came to 44%.
For `CC(C)Oc1cc(C(=O)O)cc2sc(N3CCN4C(=O)[C@@H](OCc5c(-c6c(Cl)cccc6Cl)noc5C5CC5)C[C@@H]4C3)nc12` [Example 29], in that order: over 1000 nM and 21%.
The matching figures for `O=C(O)c1ccc2nc(O[C@@H]3CO[C@H]4[C@@H]3OC[C@H]4OCc3c(-c4c(Cl)cccc4Cl)noc3C3CC3)sc2c1` [Example 14]: 30 to 200 nM and 67.5%.
The matching figures for `CC(C)Oc1cc(C(=O)O)cc2sc(N3CCN4C(=O)[C@@H](OCc5c(-c6c(Cl)cccc6Cl)noc5C5CC5)C[C@H]4C3)nc12` [Example 31]: 30 to 200 nM and 110%.
`CC(C)Oc1cc(C(=O)O)cc2sc([C@]3(F)CO[C@@H]4[C@H](OCc5c(-c6c(Cl)cccc6Cl)noc5C5CC5)CO[C@@H]43)nc12` [Example 18]: the EC50 lay within 200 to 1000 nM and the Emax was found to be 45%.
Turning to `CC(C)Oc1cc(C(=O)NS(=O)(=O)N2CCCCC2)cc2sc(O[C@@H]3CO[C@H]4[C@@H]3OC[C@H]4OCc3c(-c4c(Cl)cccc4Cl)noc3C3CC3)nc12` [Example 13], the EC50 is under 30 nM and the Emax worked out at 96.5%.
Turning to `CC(C)Oc1cc(C(=O)NS(=O)(=O)N2CCCC2)cc2sc(O[C@@H]3CO[C@H]4[C@@H]3OC[C@H]4OCc3c(-c4c(Cl)cccc4Cl)noc3C3CC3)nc12` [Example 10], the EC50 is under 30 nM and the Emax was found to be 103%.

For the origin of these results see US10689391B2, “Isoxazole analogs as FXR agonists and methods of use thereof” (Enanta Pharmaceuticals, Inc., priority 2017, dated 2020).
